Results from US20050209278A1, “Piperidinyl- and piperazinyl-sulfonylmethyl hydroxamic acids and their use as protease inhibitors” (priority 2002, published 2005).
pKi: −log10 of the molar value.

Tests used:
MMP-1 = target: T1, MMP-1 (Homo sapiens, UniProt P03956); assay: In vitro MMP inhibition, Ki determination (fluorogenic substrate II); type: biochemical; settings: value not in parenthesis; read-out: MMP-1 Ki
T1 construct: made in house; host or cells: MMP-1-transfected HT-1080 cells (spent media)
T1 sequence (P03956 100-469): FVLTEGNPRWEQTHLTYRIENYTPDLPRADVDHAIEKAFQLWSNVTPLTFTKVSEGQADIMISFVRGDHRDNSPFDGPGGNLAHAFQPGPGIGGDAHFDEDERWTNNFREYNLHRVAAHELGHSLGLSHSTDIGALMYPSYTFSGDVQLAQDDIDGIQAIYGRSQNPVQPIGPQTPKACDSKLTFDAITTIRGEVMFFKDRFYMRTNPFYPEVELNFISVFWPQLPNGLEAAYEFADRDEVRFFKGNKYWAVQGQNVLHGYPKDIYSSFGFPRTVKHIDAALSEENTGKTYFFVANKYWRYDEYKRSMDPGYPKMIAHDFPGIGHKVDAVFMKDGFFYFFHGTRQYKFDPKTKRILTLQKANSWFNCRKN

MMP-9 = target: T2, MMP-9 (Homo sapiens, UniProt P14780); assay: as above; type: biochemical; settings: value not in parenthesis
T2 construct: made in house; host or cells: MMP-9-transfected HT1080 cells (spent media)
Method in brief: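 HT1080-derived MMP-9, activated with APMA, trypsin or MMP-3, incubated 1 hr at room temperature with inhibitor and 4 μM fluorogenic substrate II (at or below Km) in pH 7.5 Tris/NaCl/CaCl2 buffer; ex 330/em 420 nm. Ki from Morrison-equation regression, without substrate correction.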

T2 sequence (P14780 107-707 limits assumed): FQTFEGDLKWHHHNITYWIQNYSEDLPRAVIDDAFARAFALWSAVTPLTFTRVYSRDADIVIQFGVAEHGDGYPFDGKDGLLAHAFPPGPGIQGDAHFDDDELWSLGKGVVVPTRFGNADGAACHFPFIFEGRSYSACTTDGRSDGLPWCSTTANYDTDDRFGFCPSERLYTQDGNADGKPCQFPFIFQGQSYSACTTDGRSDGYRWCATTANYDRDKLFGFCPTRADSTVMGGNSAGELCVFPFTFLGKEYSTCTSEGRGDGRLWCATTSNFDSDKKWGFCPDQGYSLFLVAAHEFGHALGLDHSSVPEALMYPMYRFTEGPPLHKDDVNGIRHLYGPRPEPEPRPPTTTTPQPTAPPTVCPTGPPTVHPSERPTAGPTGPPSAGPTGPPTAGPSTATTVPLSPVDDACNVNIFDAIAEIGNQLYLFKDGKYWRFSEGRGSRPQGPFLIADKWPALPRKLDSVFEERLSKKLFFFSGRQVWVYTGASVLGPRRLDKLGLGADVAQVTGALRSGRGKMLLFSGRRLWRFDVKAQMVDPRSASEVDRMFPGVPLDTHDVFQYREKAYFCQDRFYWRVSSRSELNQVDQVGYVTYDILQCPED

SMILES	pKi (MMP-1)	pKi (MMP-9)
CC(C)Cc1ccc(N2CCN(S(=O)(=O)C3(C(=O)NO)CCOCC3)CC2)c(F)c1 [Example 213]	< 5.00	7.08
CCCCc1nnc(N2CCN(S(=O)(=O)C3(C(=O)NO)CCOCC3)CC2)s1 [Example 214]	< 5.00	6.66
O=C(NO)C1(S(=O)(=O)N2CCN(c3nncs3)CC2)CCOCC1 [Example 215]	< 5.00	< 5.00
CCCc1nnc(N2CCN(S(=O)(=O)C3(C(=O)NO)CCOCC3)CC2)s1 [Example 216]	< 5.00	6.22
CCCCc1ccc(N2CCN(S(=O)(=O)C(C)C(=O)NO)CC2)nc1 (stereo not drawn) [Example 217]	< 5.00	9.35
O=C(NO)C1(S(=O)(=O)N2CCN(c3cnc(CCC(F)(F)F)cn3)CC2)CCOCC1 [Example 218]	< 5.00	8.64
CCCCCc1cnc(N2CCN(S(=O)(=O)C3(C(=O)NO)CCOCC3)CC2)cn1 [Example 219]	< 5.00	9.34
CCCCOc1ccc(N2CCN(S(=O)(=O)C3(C(=O)NO)CCN(c4ccc5c(c4)OCO5)CC3)CC2)cc1 [Example 221]	< 5.00	7.84
CCCCOc1ccc(N2CCN(S(=O)(=O)C3(C(=O)NO)CCS(=O)(=O)CC3)CC2)cc1 [Example 222]	< 5.00	7.67
CCCCOc1ccc(N2CCN(S(=O)(=O)C3(C(=O)NO)CCN(c4ccsc4)CC3)CC2)cc1 [Example 223]	< 5.00	7.18
CCCCOc1ccc(N2CCN(S(=O)(=O)C3(C(=O)NO)CCN(c4ccc(C#N)cc4)CC3)CC2)cc1 [Example 225]	< 5.00	7.55
CCCCOc1ccc(N2CCN(S(=O)(=O)C3(C(=O)NO)CCN(c4cccc(C)c4)CC3)CC2)cc1 [Example 226]	< 5.00	7.72
COCCSc1ccc(N2CCN(S(=O)(=O)C3(C(=O)NO)CCOCC3)CC2)cc1 [Example 227]	5.03	7.76
CCCCOc1ccc(N2CCN(S(=O)(=O)C3(C(=O)NO)CCN(c4ccc(OC)c(OC)c4)CC3)CC2)cc1 [Example 229]	< 5.00	8.33
CCCCOc1ccc(N2CCN(S(=O)(=O)C3(C(=O)NO)CCN(C(=O)N4CCN(C)CC4)CC3)CC2)cc1 [Example 230]	< 5.00	9.06
CCCCOc1ccc(N2CCN(S(=O)(=O)C3(C(=O)NO)CCN(C(=O)N4CCCC4)CC3)CC2)cc1 [Example 231]	< 5.00	9.15
CCCCOc1ccc(N2CCN(S(=O)(=O)C3(C(=O)NO)CCSCC3)CC2)cc1 [Example 232]	< 5.00	8.64

SMILES	pKi (MMP-1)	pKi (MMP-9)
CCCCOc1ccc(N2CCN(S(=O)(=O)C3(C(=O)NO)CCN(CCN4CCOCC4)CC3)CC2)cc1 [Example 233]	< 5.00	9.01
CCOCCSc1ccc(N2CCN(S(=O)(=O)C3(C(=O)NO)CCOCC3)CC2)cc1 [Example 234]	< 5.00	7.47
CCCCOc1ccc(N2CCN(S(=O)(=O)C3(C(=O)NO)CCN(CCN(CC)CC)CC3)CC2)cc1 [Example 235]	< 5.00	9.05
CCCCCc1ccc(N2CCN(S(=O)(=O)C3(C(=O)NO)CCN(S(=O)(=O)N(C)C)CC3)CC2)cc1 [Example 236]	< 5.00	8.58
CCCCCc1ccc(N2CCN(S(=O)(=O)C3(C(=O)NO)CCN(S(C)(=O)=O)CC3)CC2)cc1 [Example 237]	< 5.00	8.55
CCCCOc1ccc(N2CCN(S(=O)(=O)C3(C(=O)NO)CCN(CCCC(F)(F)F)CC3)CC2)cc1 [Example 238]	< 5.00	8.60
CCCCCc1ccc(N2CCN(S(=O)(=O)C3(C(=O)NO)CCN(C(C)=O)CC3)CC2)cc1 [Example 239]	< 5.00	9.34
CCCCOc1ccc(N2CCN(S(=O)(=O)C3(C(=O)NO)CCN(C(=O)NC(C)(C)C)CC3)CC2)cc1 [Example 240]	< 5.00	8.99
CCCCOc1ccc(N2CCN(S(=O)(=O)C3(C(=O)NO)CCN(c4ccc(N(C)C)cc4)CC3)CC2)cc1 [Example 241]	< 5.00	8.32
CCCCOc1ccc(N2CCN(S(=O)(=O)C3(C(=O)NO)CCN(C(=O)N(CC)CC)CC3)CC2)cc1 [Example 242]	< 5.00	8.94
CCCCOc1ccc(N2CCN(S(=O)(=O)C3(C(=O)NO)CCN(C(=O)N4CCCCC4)CC3)CC2)cc1 [Example 243]	< 5.00	9.15
CCCCOc1ccc(N2CCN(S(=O)(=O)C3(C(=O)NO)CCN(C(=O)N(C(C)C)C(C)C)CC3)CC2)cc1 [Example 244]	< 5.00	8.41
CCCCOc1ccc(N2CCN(S(=O)(=O)C3(C(=O)NO)CCN(Cc4nccn4C)CC3)CC2)cc1 [Example 245]	< 5.00	9.23
CCCCOc1ccc(N2CCN(S(=O)(=O)C3(C(=O)NO)CCN(Cc4ccc(C)o4)CC3)CC2)cc1 [Example 246]	< 5.00	8.76
CCCCOc1ccc(N2CCN(S(=O)(=O)C3(C(=O)NO)CCN(Cc4ncc[nH]4)CC3)CC2)cc1 [Example 247]	< 5.00	9.14
CCCCOc1ccc(N2CCN(S(=O)(=O)C3(C(=O)NO)CCN(c4ccc(OC)cc4)CC3)CC2)cc1 [Example 249]	< 5.00	7.95
